Values of other authors as cited in patent US20260000671A1, “CONCENTRATED SOLUTIONS COMPRISING 5,10-METHYLENE-(6R)-TETRAHYDROFOLIC ACID” (Merck Patent GMBH, priority 2022, published 2026).

- purity 24 hours following dissolution in water (24 hours following dissolution in water, % normalized purity): 44.9 % of the starting purity
- stability profile in words (following dissolution in water, FIG. 1): degraded rapidly over time
- purity after 7 hours (re-constituted lyophilizate, after 7 hours): 84%
- purity loss per hour (degradation rate, slope of best-fit line) (re-constituted lyophilizate, linear regression of stability profile): 2.3 % purity per hour
Compound: Nc1nc2c(c(=O)[nH]1)N1CN(c3ccc(C(=O)N[C@@H](CCC(=O)O)C(=O)O)cc3)C[C@H]1CN2 [5,10-methylene-(6R,S)-tetrahydrofolic acid]
